Assay [1] concerns KRas-mediated phosphorylation of ERK in H460 cells. In words: Inhibition of KRas-mediated phosphorylation of ERK (Cisbio HTRF pERK), H460 cells. The settings on record: Homo sapiens; for inhibition at 0.1 µM: NCI-H460, 3 h, single point, 100 nM compound, 3 hrs. The format is cell-based. An outline of the steps:
(§1)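 Phosphorylated ERK was quantified by HTRF using d2-conjugate and Cryptate antibodies added to lysates for 2 hrs at room temperature.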
A general note: TR-FRET usually uses a lanthanide donor and a delayed reading to cut background.

Assay [2] relates to KRas-mediated phosphorylation of ERK in H358 cells. Kind of assay: Inhibition of KRas-mediated phosphorylation of ERK (Cisbio HTRF pERK), H358 cells. Format: cell-based. As to conditions: Homo sapiens; for inhibition at 0.1 µM: NCI-H358, 3 h, single point, 100 nM compound, 3 hrs. How it is done: Inhibition of KRas Phosphorylation of ERK (HTRF) by Exemplary Compounds of Formula (I) Cisbio HTRF Advanced PERK Assay Catalog #64[…] […] Add 10 mL of media to stop trypsinizing. Pipette the cells into a conical bottom 50 mL centrifuge tube and centrifuge 5 min×1000 rpm. […] Re-suspend the cell pellet in media, take a cell count, and then adjust the cell density using fresh media. […] Seed 6,000 cells into cell culture plate with 50 μL media. […] Use Tecan to complete the compound addition. Compounds start from 10 uM top, 3-fold dilution, and 10 doses. The final DMSO concentration is 0.8%. Dispensed 0.2 uM Trametinib as Min control. […] Incubate cell plate for 3 hrs in the incubator. […] Dilute 1 volume of 4× lysis buffer with 3 volumes of deionized water. […] Keep lysis buffer on the ice. […] At the end of the compound treatment, flick-off the media. […] Add 35 μL of lysis buffer per well using a Multidrop Combi. Then place on a plate agitator shaking at 300 rpm at 4° C. for 40 mins. […] Make up the HTRF antibody buffer. For each assay plate, mix 50 μL of d2-conjugate antibody with 950 μL of detection buffer. Similarly, mix 50 μL of Cryptate antibody with 950 μL of detection buffer. Then mix the two diluted antibodies together. […] Dispense 3.4 μL the antibody buffer to wells of an empty assay plate. Seal the plate and centrifuge plate 30 sec×1000 rpm. […] At the end of the 4° C. lysis, centrifuge the lysate plates 3 mins×1500 rpm. […] Use the Bravo to transfer 13.6 μL of lysate from cell culture plate to assay plate. Then incubate assay plate for 2 hrs at room temperature. 8. At the end of incubation, read plate on the Envision after centrifuging plate 30 sec×1000 rpm.

Assay [3] relates to KRas-mediated phosphorylation of ERK in AsPC-1 cells. In words: Inhibition of KRas-mediated phosphorylation of ERK (Cisbio HTRF pERK), AsPC-1 cells. Format: cell-based. As to conditions: Homo sapiens; for IC50: ASPC1, AsPC-1 cells, HTRF pERK; for inhibition at 0.1 µM: ASPC1, 3 h, single point, 100 nM compound, 3 hrs, AsPC-1 cells. An outline of the steps:
as §1

Assay [4] deals with KRas-mediated phosphorylation of ERK in HCT116 cells. In words: Inhibition of KRas-mediated phosphorylation of ERK (Cisbio HTRF pERK), HCT116 cells. Format: cell-based. The settings on record: Homo sapiens; for inhibition at 0.1 µM: HCT-116, 3 h, single point, 100 nM compound, 3 hrs. An outline of the steps:
(§2)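 A cell-based HTRF pERK assay: ten-point, threefold titrations beginning at 10 uM were applied for 3 hrs, with 0.2 uM Trametinib wells as the minimum control. Cells were lysed cold, and lysate was incubated with the antibody pair for 2 hrs before reading.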

For assay [5], the system named is KRas-mediated phosphorylation of ERK in H727 cells. Kind of assay: Inhibition of KRas-mediated phosphorylation of ERK (Cisbio HTRF pERK), H727 cells. The format is cell-based. The settings on record: Homo sapiens; for IC50: NCI-H727, H727 cells, HTRF pERK; for inhibition at 0.1 µM: NCI-H727, 3 h, single point, 100 nM compound, 3 hrs, H727 cells. The gist of the method:
as §1

Assay [6] has as its system KRas-mediated phosphorylation of ERK in A549 cells. In words: Inhibition of KRas-mediated phosphorylation of ERK (Cisbio HTRF pERK), A549 cells. The format is cell-based. The settings on record: Homo sapiens; for inhibition at 0.1 µM: A549, 3 h, single point, 100 nM compound, 3 hrs. The gist of the method: as §2
The target in a further assay is T1, KRas^G12V (Homo sapiens, UniProt P01116, G12V).
T1 construct: Biotinylated KRas (corresponding to amino acids 1-169, produced at Accelegan Inc.); biotin (biotinylated); purchased Accelegan Inc
Kind of assay: KRas binding assay (TR-FRET tracer displacement), KRas G12V.

For another assay, the target named is T2, KRas^G12D (Homo sapiens, UniProt P01116, G12D).
T2 construct: Biotinylated KRas (corresponding to amino acids 1-169, produced at Accelegan Inc.); biotin (biotinylated); purchased Accelegan Inc
In words: KRas binding assay (TR-FRET tracer displacement), KRas G12D.

Another assay has as its target T3, KRas^G12R (Homo sapiens, UniProt P01116, G12R).
T3 construct: Biotinylated KRas (corresponding to amino acids 1-169, produced at Accelegan Inc.); biotin (biotinylated); purchased Accelegan Inc
In words: KRas binding assay (TR-FRET tracer displacement), KRas G12R.

T2 sequence (P01116 1-169 isoform P01116-2 G12D): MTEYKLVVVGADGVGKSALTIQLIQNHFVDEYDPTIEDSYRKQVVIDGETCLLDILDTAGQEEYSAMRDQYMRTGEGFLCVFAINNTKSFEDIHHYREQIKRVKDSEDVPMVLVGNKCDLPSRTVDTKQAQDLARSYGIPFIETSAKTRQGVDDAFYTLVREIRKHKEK
T3 sequence (P01116 1-169 isoform P01116-2 G12R): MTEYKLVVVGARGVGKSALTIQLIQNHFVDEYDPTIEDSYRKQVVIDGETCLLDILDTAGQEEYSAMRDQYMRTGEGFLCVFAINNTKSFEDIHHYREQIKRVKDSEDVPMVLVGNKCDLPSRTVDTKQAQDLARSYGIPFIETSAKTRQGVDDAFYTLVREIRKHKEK
T1 sequence (P01116 1-169 isoform P01116-2 G12V): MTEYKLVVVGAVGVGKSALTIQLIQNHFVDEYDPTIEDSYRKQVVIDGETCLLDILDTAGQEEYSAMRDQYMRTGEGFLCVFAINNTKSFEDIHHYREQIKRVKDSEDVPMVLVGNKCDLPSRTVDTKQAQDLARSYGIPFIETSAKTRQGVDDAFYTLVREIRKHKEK

In general, inhibition refers to the change of the read-out against control, counted positive when it falls. As a reminder, the IC50 is the concentration that gives 50% inhibition. Read a high IC50 as lower potency. Consider `CCc1c(F)ccc2cc(O)cc(-c3ncc4c(N5CCCc6ncncc6C5)nc(OC[C@@]56CCCN5C[C@H](F)C6)nc4c3F)c12` [Example 582, 4-(4-(8,9-dihydro-5H-pyrimido[5,4-c]azepin-6(7H)-yl)-8-fluoro-2-(((2R,7aS)-2-fluorohexahydro-1H-pyrrolizin-7a-yl)methoxy)pyrido[4,3-d]pyrimidin-7-yl)-5-ethyl-6-fluoronaphthalen-2-ol], for which the inhibition at 0.1 µM came out at 3% in assay [1], 15% in assay [2], 13% in [4] and 32% in [6]. Besides, the concentration for half-maximal inhibition (IC50) amounted to 130 nM in assay [3]; 328 nM in assay [5]; 11 nM on KRas^G12V; 3 nM on KRas^G12D; 10 nM at KRas^G12R.
For `CCc1c(F)ccc2cc(O)cc(-c3ncc4c(N5CCCc6nnncc6C5)nc(OC[C@@]56CCCN5C[C@H](F)C6)nc4c3F)c12` [Example 584, 4-(4-(8,9-dihydro-5H-[1,2,3]triazino[5,4-c]azepin-6(7H)-yl)-8-fluoro-2-(((2R,7aS)-2-fluorohexahydro-1H-pyrrolizin-7a-yl)methoxy)pyrido[4,3-d]pyrimidin-7-yl)-5-ethyl-6-fluoronaphthalen-2-ol], the inhibition at 0.1 µM in assay [1] is 11%; in assay [2] it was 15%; in [3], -20%; in assay [4], 3%; in assay [5], -18%; in assay [6], 14%. The IC50 in assay [3] is 231 nM; in assay [5], 981 nM; on KRas^G12V, 6 nM; at KRas^G12D it was under 2 nM; at KRas^G12R it was 12 nM.
With `CCc1c(F)ccc2cc(O)cc(-c3ncc4c(N5CCCC(C6CCOC6)C5)nc(OC[C@@]56CCCN5C[C@H](F)C6)nc4c3F)c12` (stereo partly drawn) [Example 595, 5-ethyl-6-fluoro-4-(8-fluoro-2-(((2R,7aS)-2-fluorohexahydro-1H-pyrrolizin-7a-yl)methoxy)-4-(3-(tetrahydrofuran-3-yl)piperidin-1-yl)pyrido[4,3-d]pyrimidin-7-yl)naphthalen-2-ol], the inhibition at 0.1 µM was 12% in assay [1], -1% in [2], -9% in assay [4] and 3% in [6]. Besides, the 50% inhibitory concentration (IC50) in assay [3] worked out at 1570 nM; in assay [5], 1190 nM; at KRas^G12V, 38 nM; on KRas^G12D, 194 nM; at KRas^G12R, 85 nM.
For the compound `CCc1c(F)ccc2cc(O)cc(-c3ncc4c(N5CCC(C)(O)C(F)(F)CC5)nc(OC[C@@]56CCCN5C[C@H](F)C6)nc4c3F)c12` (stereo partly drawn) [Example 605, 1-(7-(8-ethyl-7-fluoro-3-hydroxynaphthalen-1-yl)-8-fluoro-2-(((2R,7aS)-2-fluorotetrahydro-1H-pyrrolizin-7a(5H)-yl)methoxy)pyrido[4,3-d]pyrimidin-4-yl)-5,5-difluoro-4-methylazepan-4-ol], the inhibition at 0.1 µM is 7% in assay [1], 3% in [2], -12% in assay [4] and 20% in [6]. The IC50 in assay [3] came to 1560 nM; in assay [5], 946 nM; on KRas^G12V, 71 nM; at KRas^G12D it was 119 nM; at KRas^G12R, 47 nM.
On to `CCc1c(F)ccc2cc(O)cc(-c3ncc4c(N5C[C@@H]6C[C@]6(c6nc(C)no6)C5)nc(OC[C@@]56CCCN5C[C@H](F)C6)nc4c3F)c12` [Example 607, 5-ethyl-6-fluoro-4-(8-fluoro-2-(((2R,7aS)-2-fluorotetrahydro-1H-pyrrolizin-7a(5H)-yl)methoxy)-4-((1R,5R)-1-(3-methyl-1,2,4-oxadiazol-5-yl)-3-azabicyclo[3.1.0]hexan-3-yl)pyrido[4,3-d]pyrimidin-7-yl)naphthalen-2-ol], for which the inhibition at 0.1 µM in [1] was 62%; in assay [2], 9%; in assay [4], 24%; in assay [6], 34%. For the same compound, the half-maximal inhibitory concentration (IC50) in assay [3] turned out to be 1740 nM; in assay [5], 1770 nM; on KRas^G12V it was 53 nM; on KRas^G12D, 151 nM; at KRas^G12R, 99 nM.
Consider `CCc1c(F)ccc2cc(O)cc(-c3ncc4c(N5CCCC(Cn6cccn6)C5)nc(OC[C@@]56CCCN5C[C@H](F)C6)nc4c3F)c12` (stereo partly drawn) [Example 610, 4-(4-(3-((1H-pyrazol-1-yl)methyl)piperidin-1-yl)-8-fluoro-2-(((2R,7aS)-2-fluorotetrahydro-1H-pyrrolizin-7a(5H)-yl)methoxy)pyrido[4,3-d]pyrimidin-7-yl)-5-ethyl-6-fluoronaphthalen-2-ol], for which the inhibition at 0.1 µM in assay [1] is 31%; in assay [2], 1%; in [4] it was -5%; in assay [6], 10%. For the same compound, the half-maximal inhibitory concentration (IC50) was found to be 256 nM in assay [1] (NCI-H460, HTRF pERK); 662 nM in assay [2] (NCI-H358, HTRF pERK); 884 nM in assay [3]; 1010 nM in assay [4] (HCT-116, HTRF pERK); 660 nM in [5]; 1300 nM in assay [6] (HTRF pERK). The IC50 on KRas^G12V worked out at 28 nM; at KRas^G12D, 66 nM; at KRas^G12R it was 48 nM.
In the case of `CCc1c(F)ccc2cc(O)cc(-c3ncc4c(NCc5cc(C(=O)N(C)C)nn5CC#N)nc(OC[C@@]56CCCN5C[C@H](F)C6)nc4c3F)c12` [Example 657, 1-(cyanomethyl)-5-(((7-(8-ethyl-7-fluoro-3-hydroxynaphthalen-1-yl)-8-fluoro-2-(((2R,7aS)-2-fluorotetrahydro-1H-pyrrolizin-7a(5H)-yl)methoxy)pyrido[4,3-d]pyrimidin-4-yl)amino)methyl)-N,N-dimethyl-1H-pyrazole-3-carboxamide], the inhibition at 0.1 µM in assay [1] was -18%; in assay [2], 27%; in assay [3], -24%; in assay [4] it was -9%; in [5], 19%; in assay [6], -2%. In addition, the IC50 in [5] is 2660 nM; at KRas^G12V, under 2 nM; at KRas^G12D, 4 nM; at KRas^G12R it was under 2 nM.
Consider `CCc1c(F)ccc2cc(O)cc(-c3ncc4c(N5CCCn6nc(S(=O)(=O)NC)cc6C5)nc(OC[C@@]56CCCN5C[C@H](F)C6)nc4c3F)c12` [Example 676, 5-(7-(8-ethyl-7-fluoro-3-hydroxynaphthalen-1-yl)-8-fluoro-2-(((2R,7aS)-2-fluorohexahydro-1H-pyrrolizin-7a-yl)methoxy)pyrido[4,3-d]pyrimidin-4-yl)-N-methyl-5,6,7,8-tetrahydro-4H-pyrazolo[1,5-a][1,4]diazepine-2-sulfonamide], for which the inhibition at 0.1 µM was 11% in assay [1], -4% in [2], 4% in assay [4] and 19% in [6]. The concentration for half-maximal inhibition (IC50) in assay [3] was 996 nM; in assay [5], 5130 nM; on KRas^G12V, 6 nM; on KRas^G12D, 2 nM; at KRas^G12R it was 5 nM.

Values taken from patent US20260015350A1, “AZAQUINAZOLINE PAN-KRAS INHIBITORS” (Mirati Therapeutics, Inc., priority 2022, published 2026).
